Test results as given in PubChem BioAssay (NCI).
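Cells were grown in 96-well plates and exposed to each compound for 48 hours at five concentrations; endpoints were interpolated linearly between bracketing concentrations, or set to the highest concentration if not reached. Abbreviation: GI50, concentration required for 50% inhibition of growth. TGI: total growth inhibition.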

Experiments:
Assay in all cases: NCI anticancer screen, dose series, 48 h
[1] = system: EKVX NSCLC
[2] = system: SK-MEL-5 melanoma
[3] = system: UACC-62 melanoma
[4] = system: NCI-H522 lung
[5] = system: MDA-MB-231 breast
[6] = system: SR leukemia
[7] = system: MOLT-4 leukemia
[8] = system: HS 578T breast
[9] = system: T-47D breast
[10] = system: MALME-3M melanoma
[11] = system: CAKI-1 renal
[12] = system: SK-MEL-28 melanoma
[13] = system: MDA-MB-435
[14] = system: HCT-116 colon
[15] = system: OVCAR-5 ovarian
[16] = system: NCI-H226 lung
[17] = system: HCC-2998 colon
[18] = system: U251 CNS
[19] = system: LOX IMVI melanoma
[20] = system: M14 melanoma
[21] = system: OVCAR-3 ovarian
[22] = system: SW-620 colon
[23] = system: HT29 colon
[24] = system: OVCAR-8 ovarian
[25] = system: UACC-257 melanoma
[26] = system: DU-145 prostate
[27] = system: SNB-75 CNS
[28] = system: SN12C renal
[29] = system: ACHN renal
[30] = system: HL-60(TB) leukemia
[31] = system: PC-3 prostate
[32] = system: 786-0 renal
[33] = system: SF-295 CNS
[34] = system: CCRF-CEM leukemia
[35] = system: KM12 colon
[36] = system: COLO 205 colon
[37] = system: K-562 leukemia
[38] = system: A498 renal
[39] = system: SK-MEL-2 melanoma
[40] = system: MCF7 breast
[41] = system: SK-OV-3 ovarian
[42] = system: IGROV1 ovarian
[43] = system: SNB-19 CNS
[44] = system: NCI/ADR-RES ovarian
[45] = system: RXF 393 renal
[46] = system: UO-31 renal
[47] = system: NCI-H460 lung
[48] = system: HCT-15 colon
[49] = system: SF-268 CNS
[50] = system: TK-10 renal
[51] = system: SF-539 CNS
[52] = system: BT-549 breast
[53] = system: RPMI-8226 leukemia
[54] = system: OVCAR-4 ovarian
[55] = system: HOP-92 NSCLC
[56] = system: A549 NSCLC

C/C(=N\NC(=O)CSc1nc2sc3c(c2c(=O)n1-c1ccccc1)CCC(C)C3)c1ccc(Cl)cc1 (configuration not stated)
GI50 [1]: 5.08 µM | TGI [1]: > 100 µM | GI50 [2]: 4.8 µM | TGI [2]: 19.5 µM | GI50 [3]: 3.57 µM | TGI [3]: > 100 µM | GI50 [4]: 3.39 µM | TGI [4]: 39.1 µM | GI50 [5]: 4.67 µM | TGI [5]: > 100 µM | GI50 [6]: 0.735 µM | TGI [6]: > 100 µM | GI50 [7]: 0.575 µM | TGI [7]: > 100 µM | GI50 [8]: 8.85 µM | TGI [8]: > 100 µM | GI50 [9]: 3.55 µM | TGI [9]: 68 µM | GI50 [10]: 11.8 µM | TGI [10]: > 100 µM | GI50 [11]: 2.04 µM | TGI [11]: > 100 µM | GI50 [12]: 7.76 µM | TGI [12]: > 100 µM | GI50 [13]: 3.86 µM | TGI [13]: 66.1 µM | GI50 [14]: 0.578 µM | TGI [14]: > 100 µM | GI50 [15]: 3.52 µM | TGI [15]: > 100 µM | GI50 [16]: 13 µM | TGI [16]: 52.7 µM | GI50 [17]: 2.76 µM | TGI [17]: > 100 µM | GI50 [18]: 1.98 µM | TGI [18]: > 100 µM | GI50 [19]: 0.348 µM | TGI [19]: 15.7 µM | GI50 [20]: 2.34 µM | TGI [20]: 14.1 µM | GI50 [21]: 3.33 µM | TGI [21]: > 100 µM | GI50 [22]: 3.26 µM | TGI [22]: > 100 µM | GI50 [23]: 3.13 µM | TGI [23]: 13.3 µM | GI50 [24]: 3.31 µM | TGI [24]: 84.7 µM | GI50 [25]: 16.1 µM | TGI [25]: 95.1 µM | GI50 [26]: 3.63 µM | TGI [26]: > 100 µM | GI50 [27]: 2.55 µM | TGI [27]: 13.7 µM | GI50 [28]: 3.4 µM | TGI [28]: > 100 µM | GI50 [29]: 1.7 µM | TGI [29]: > 100 µM | GI50 [30]: 1.51 µM | TGI [30]: > 100 µM | GI50 [31]: 3.26 µM | TGI [31]: > 100 µM | GI50 [32]: 0.366 µM | TGI [32]: 38.1 µM | GI50 [33]: 4.18 µM | TGI [33]: > 100 µM | GI50 [34]: 0.742 µM | TGI [34]: > 100 µM | GI50 [35]: 2.66 µM | TGI [35]: > 100 µM | GI50 [36]: 2.94 µM | TGI [36]: 17.5 µM | GI50 [37]: 0.592 µM | TGI [37]: > 100 µM | GI50 [38]: > 100 µM | TGI [38]: > 100 µM | GI50 [39]: 2.31 µM | TGI [39]: 14.7 µM | GI50 [40]: 0.439 µM | TGI [40]: > 100 µM | GI50 [41]: 3.68 µM | TGI [41]: 36.5 µM | GI50 [42]: 2.82 µM | TGI [42]: > 100 µM | GI50 [43]: 4.89 µM | TGI [43]: > 100 µM | GI50 [44]: 2.63 µM | TGI [44]: 12.6 µM | GI50 [45]: 1.53 µM | TGI [45]: 8.71 µM | GI50 [46]: 2.11 µM | TGI [46]: 15.8 µM | GI50 [47]: 1.16 µM | TGI [47]: > 100 µM | GI50 [48]: 0.387 µM | TGI [48]: 25.7 µM | GI50 [49]: 3.73 µM | TGI [49]: > 100 µM | GI50 [50]: 4.64 µM | TGI [50]: > 100 µM | GI50 [51]: 0.866 µM | TGI [51]: 4.02 µM | GI50 [52]: 3.6 µM | TGI [52]: 26.5 µM | GI50 [53]: 2.83 µM | TGI [53]: > 100 µM | GI50 [54]: 2.2 µM | TGI [54]: > 100 µM | GI50 [55]: 1.33 µM | TGI [55]: 9.88 µM | GI50 [56]: 2.57 µM | TGI [56]: > 100 µM
